Source: patent US8865672B2, “Prevention of tissue ischemia and related methods” (The United States of America, as represented by the …, priority 2006, dated 2014)
“Also recorded” adds a separate entry of the source.

Key:
CD47 = test: Western analysis of CD47 in HUVEC; type: cell-based, human; conditions: morpholino 0.1-10 μM, 48 h
Description: HUVEC were plated in 12-well culture plates (5×10^4 cells/well) (Nunc, Denmark) in full growth medium and treated over 48 h with indicated doses of CD47 and control morpholino. Cells were subsequently washed twice with PBS and lysed immediately in 1×SDS sample buffer containing 10 µg/mL leupeptin, […] aprotinin, 1 mM Na3VO4, and 40 mM NaF. Lysates prepared in the SDS sample buffer described above were electrophoresed in 4-12% BisTris NuPAGE gels and transferred to PVDF membranes prior to immunoblotting with a monoclonal antibody to CD47 (clone B6H12, Lab Visions, Inc, Fremont, Calif.). The membrane was stripped and reprobed with a monoclonal antibody against β-actin (Sigma-Aldrich, St. Louis, Mo.).

murine ASMC (CD47 null) = test: Murine ASMC proliferation; type: cell-based, mouse; conditions: CD47 null MASMC
Description: Murine ASMC were obtained from aortic segments harvested sterilely from C57B1/6 CD47 null or CD36 null mice as described (Ray et al., Methods Cell Sci 23:185-188, 2001) and cultured in SM-GM (Cambrex)+20% FCS. In the case of CD36 null cells, culture flasks were pre-coated with 1% gelatin prior to cell plating. Wild type C57B1/6 ASMC cultures were prepared as previously described (Isenberg et al., Matrix Biol 24:110-123, 2005). Cell culture purity was determined by immunohistochemistry staining for α-smooth muscle actin. Cells were used within passage 1 to 4 to minimize overgrowth of other cell types.
Proliferation of vascular cells was measured with a non-radioactive colorimetric assay (CellTiter 96, Promega, Madison, Wis.). Briefly, to each well of a 96-well culture plate (Nunc, Denmark) 5×10^3 cells were suspended in 100 μl of culture medium with indicated treatments and incubated for 72 hours at 37° C. in a 5% CO2 atmosphere. Following incubation 20 μl of tetrazolium compound/solubilization agent was added and incubation continued for 4 hours under the same conditions. The plate was then read on a MR580 Microelisa Auto Reader (Dynatech) at a wavelength of 490 nm. Appropriate zero time controls were run for all assays and the optical density readings obtained then subtracted from those obtained at 72 hours.

VASP = test: Phospho-Ser239 VASP Western blotting in platelets; type: cell-based, human; conditions: 8Br-cGMP 100 μM, TSP1 2.2 nM
Description: Washed human platelets (resuspended in Tyrode's buffer to 3×10^8 platelets/mL to a final volume of 0.5 mL) were incubated at 37° C. for 30 minutes before treatment. TSP1 was added 15 minutes prior to treatment. Immediately following treatment, platelets were pelleted at 13,000×g at 4° C. for 15 seconds and resuspended in 1 mL of a lysis buffer containing 10 mM Tris-HCl (pH 7.5), 150 mM NaCl, 1 mM EDTA, 1 mM Na3VO4, 40 mM NaF, 1 μg/mL aprotinin, 1 μg/mL leupeptin, 1 mM phenylmethysulfonylfluoride and 1% […]. This suspension was placed at 4° C. with gentle agitation for 5 minutes before centrifugation at 13000×g for 5 minutes at 4° C. 5 μg lysates were electrophoresed on 4-12% Bis-Tris NuPAGE gels, transferred to Immobilon PVDF membranes and probed with a rabbit polyclonal antiserum against Serine 239-phosphorylated VASP (Santa Cruz Biotechnology, Santa Cruz, Calif.).

[1] = tested on: white hairless Yucatan miniature pig VSMC; test: Porcine VSMC adhesion assay; type: cell-based; conditions: TSP1 0.022-2.2 nM
Description: White hairless Yucatan miniature pig VSMC were plated at 10,000 cells/well onto 96-well plates (Maxisorb, Nunc) precoated with type I collagen (3 μg/ml). Cells were incubated for 1 h in basal medium (lacking additives and serum) with 0.1% BSA and the indicated concentrations of TSP1 and DEA/NO. Plates were then washed with PBS, fixed with glutaraldehyde, stained with crystal violet, and washed. Absorbed stain was solubilized with acetic acid from fixed cells and the resulting color signal determined on a MR580Microelisa Auto Reader, (Dynatech, Alexandria, Va.) at 450 nm wavelength. In other experiments cell were treated with a CD47 or mismatch control morpholino as described for 48 h prior to harvesting.

[2] = tested on: murine aortic VSMC (WT, TSP1 null, CD47 null); test: 3D collagen gel contraction assay, murine VSMC; type: cell-based, mouse; conditions: for relaxation of pre-contracted VSMC by NO: TSP1 2.2 nM
Description: Type I collagen gel (3 mg/ml) with 10×M199 (Gibco, Grand Island, N.Y.) at a 10:1 ratio of collagen to medium was prepared, pH balanced with NaOH and seeded with either HAVSMC or VSMC harvested from aortic segments from C57B16 WT or TSP1 null mice (50,000 cells in 75 μl of gel/well) and aliquoted to 96-well plates (Nunc, Denmark). Plates were incubated for 12 h 37° C. and 5% CO2 allowing for gelation and cell spreading, gently released from the well walls and incubated in serum and additive deficient growth medium with 0.1% BSA in the presence of the indicated treatment agents for 10 h. Contraction was determined by measuring the diameter in perpendicular planes (x, y) of each disk, an average obtained and surface area calculated as (d/2)^2π. Experiments were performed in triplicate. Results represent the mean±SD of at least three separate experiments.
Collagen gel contraction assays were performed using murine derived VSMC (7.5×10^4 cells/gel) as described (Isenberg et al., Blood 2006; Example 2). Wells receiving TSP1 were pre-incubated with the indicated concentrations of agent overnight. Contraction was initiated with either 10% FCS or sphingosine 1-phosphate (S1P, 100 nM).

Rap1 = Rap1 pulldown assay in platelets; type: cell-based, human; conditions: thrombin
Description: Platelets were diluted to 5×10^8 platelets/mL in Tyrode's buffer and treated with various reagents for the indicated times. Immediately following treatment, platelets were pelleted at 13,000 g for 30 seconds at 4° C. and resuspended in ice-cold lysis buffer containing 20 mM HEPES (pH 7.5), 100 mM NaCl, 10 mM EGTA, 20 mM MgCl2, 8 mM α-glycerophosphate, 1% Triton X-100, 1 mM phenylmethylsulfonylfluoride, 40 mM NaF, 1 mM Na3VO4, 10 μg/mL aprotinin, and 10 μg/mL leupeptin. Lysates were centrifuged at 13,000 g for 5 minutes at 4° C. and the supernatants were incubated for 15 minutes on a tumbler at 4° C. with glutathione Sepharose 4B beads (Amersham) prebound with a GST-Ral GDS RBD fusion protein (kind gift of J. Silvio Gutkind, NIH, Bethesda, Md.). Bead complexes were washed by centrifugation at 6,000 g for 30 seconds at 4° C. followed by resuspension in 0.5 mL lysis buffer; 2 washes were performed for each sample. After the second wash, beads were resuspended in an equal volume of 2×SDS sample buffer and stored at −20° C. For Western analysis, bead-bound proteins in sample buffer were boiled for 10 minutes and subjected to electrophoresis on NuPAGE 10% Bis-Tris gels (Invitrogen, Carlsbad, Calif.), transferred to Immobilon-P PVDF membranes (Millipore, Billerica, Mass.), and blotted with rabbit polyclonal anti-Rapt (sc-65; Santa Cruz Biotechnology, Santa Cruz, Calif.).

Row | Substance | CD47 expression (Western) (CD47) | NO-stimulated proliferation (murine ASMC (CD47 null)) | VASP phosphorylation at Ser239 (VASP) | NO-stimulated adhesion to type I collagen [1] | relaxation of pre-contracted VSMC by NO ([2]; CD47 null VSMC) | contractile response to S1P ([2]; TSP1 null murine VSMC) | relaxation of pre-contracted VSMC by NO ([2]; wild type cells) | Rap1 activation (GTP loading) (Rap1)
1 | CGTgACAGcCAcGACCgACTGCgCA (antisense CGTGACAGCCACGACCGACTGCGCA; all phosphorodiamidate morpholino (PMO)) [control morpholino, reference compound] | did not show suppression of CD47 | – | – | – | – | – | – | –
2 | CGTCACAGGCAGGACCCACTGCCCA (all phosphorodiamidate morpholino (PMO)) [CD47 morpholino] | Effective dose-dependent suppression of CD47 | – | – | – | – | – | – | –
3 | TSP1: thrombospondin-1 prepared from human platelets | – | did not inhibit | inhibited | inhibited | absent | increased the contractile response of TSP1 null cells to S1P | completely inhibited | reversed the inhibition of Rap1 activation; also recorded: did not increase Rap1 activation
